Patent US20250186467A1, “METHODS OF TREATING MEDICAL CONDITIONS USING STAMPIDINE OR A RELATED COMPOUND” (ROME Therapeutics, Inc., priority 2022, published 2025)

What was measured:
[1] = molecular target: T1, LINE1 reverse transcriptase (Homo sapiens, UniProt O00370); assay: Stable artificial-intron Cis LINE1 reporter assay; assay type: cell-based; design: expressed in transfected cells; host or cells: HeLa Tet-On 3G (Takara, cat no 631183); conditions: HeLa L1 artificial-intron reporter cells, doxycycline induced, 72 h, Firefly luciferase; read-out: IC50, inhibition of LINE1 reverse transcriptase
Text: A stable HeLa Tet-On 3G (Takara, cat no 631183) cell line expressing a bi-directional inducible LINE1 construct was generated as described in Xie, Y. et al. “Cell division promotes efficient retrotransposition in a stable L1 reporter cell line,” Mobile DNA (2013) 4:10. Single cell clones were screened for high Luciferase expression and the highest expression Firefly expressing clone was chosen for compound testing.
Test compound was serially diluted in DMSO and spotted in 96-well plates. Subsequently the HeLa L1 artificial-intron reporter cells were plated into the compound-containing wells (8,000 cells/well), and the cells were induced for reporter expression with doxycycline (Sigma cat no D9891) at a final concentration of 500 ng/mL. Luminescence was measured 72 h after plating using the Dual-Glo Luciferase Assay System (Promega cat no E2940) following the manufacturer's instructions. The Firefly Luciferase activity was used to report LINE1 activity.

THP1-Dual KO-TREX1 cells = assay: CellTiter-Glo cell viability in THP1 TREX1 KO cells; assay type: cell-based; conditions: highest dose, with 1 μM 5-aza-2′-deoxycytidine, five days
Procedure: THP1 Dual TREX1 KO cells were purchased from Invivogen. The THP1-Dual™ KO-TREX1 cells were cultured in RPMI 1640, 10% heat-inactivated fetal bovine serum, 25 mM HEPES, 10 μg/mL Blasticidin, and 100 μg/mL Zeocin. THP1-Dual™ KO-TREX1 cells were treated with a dose titration of test compound in the presence of 1 μM 5-aza-2′-deoxycytidine (Sigma, cat #189825). Type 1 Interferon and cell viability were assessed after five days of treatment.
Stock solution of test compound was prepared in DMSO followed by a three-fold dilution in DMSO. Additional 50× dilution was prepared in cell culture media for each dilution. 10 μL of diluted test compound was then added to a 384-well plate.
THP1-Dual™ KO-TREX1 cells were treated with 1 μM 5-aza-2′-deoxycytidine. THP1-Dual™ KO-TREX1 cells (50 μL) were added to each well of the 384-well plate containing test compound titration at 10,000 cells/well. Cells were incubated at 37° C., 5% CO2 in a humidified incubator for five days. […] Luminescence was detected on a plate reader according to manufacturer's instructions. […]
The remaining cells were assessed for cell viability by adding 30 μl of CellTiter-Glo (Promega, 09683) solution to each well, and placed on a shaker for 10 minutes at room temperature. Luminescence was detected on a plate reader, according to manufacturer's instructions. […]

[2] = molecular target: HERV-K reverse transcriptase (Homo sapiens, UniProt V9H0F6); assay: Homogeneous time-resolved fluorescence (HTRF) HERV-K RT assay; assay type: biochemical; conditions: HERV-K reverse transcriptase (2-596)-8His protein, read-out: IC50, inhibition of HERV-K reverse transcriptase
HERV-K reverse transcriptase, sequence (V9H0F6 entry or part of it): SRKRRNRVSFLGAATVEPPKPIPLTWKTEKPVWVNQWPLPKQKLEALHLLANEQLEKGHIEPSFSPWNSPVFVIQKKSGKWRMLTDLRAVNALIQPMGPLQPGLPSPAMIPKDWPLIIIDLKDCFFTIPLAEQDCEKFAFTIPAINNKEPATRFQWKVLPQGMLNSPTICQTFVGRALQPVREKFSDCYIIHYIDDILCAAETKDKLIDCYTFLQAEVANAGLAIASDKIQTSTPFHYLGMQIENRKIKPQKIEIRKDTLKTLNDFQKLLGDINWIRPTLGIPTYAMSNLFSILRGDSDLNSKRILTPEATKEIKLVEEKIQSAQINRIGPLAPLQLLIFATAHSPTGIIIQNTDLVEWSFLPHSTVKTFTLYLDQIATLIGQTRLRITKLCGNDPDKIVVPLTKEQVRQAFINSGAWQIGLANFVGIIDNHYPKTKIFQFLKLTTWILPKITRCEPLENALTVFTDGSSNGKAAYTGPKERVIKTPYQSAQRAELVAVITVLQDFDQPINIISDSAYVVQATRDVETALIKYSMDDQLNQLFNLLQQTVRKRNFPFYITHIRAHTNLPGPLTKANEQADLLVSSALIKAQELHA
Procedure: The HERV-K reverse transcriptase homogeneous time-resolved fluorescence (HTRF) assay was performed in a 384-well format with HERV-K reverse transcriptase (2-596)-8His protein. Baculoviruses were created using Bac-to-Bac technology (Invitrogen). pFastBac donor plasmids containing HERV-K reverse transcriptase sequence (NCBI GenBank number AAC63291.1, J. Virology (1999) Vol. 73, No. 3, pp. 2365-2375) were transformed into DH10 Bac cells following the manufacturer's instructions. Recombinant bacmids were then isolated clonally and transfected into SF9 cells with lipofectin. HERV-K reverse transcriptase was expressed in the SF9 insect cells and then purified using immobilized metal affinity chromatography (IMAC) followed by size-exclusion chromatography (SEC). […]
(§1) After incubating at 25° C. for 30 minutes, the detection reagent 20 mM EDTA with streptavidin-terbium cryptate (Cisbio Bioassay) in the PPI buffer (Cisbio Bioassay) was added, and the mixture was incubated at 25° C. for 30 minutes. At the end of the incubation, fluorescence was read at ex/em=337/485 nm and ex/em=337/520 nm on an Envision 2104 plate reader (Perkin Elmer). The fluorescence ratio at 520/485 nm was used for the calculation. […] The IC50 was calculated by fitting the compound dose inhibition curve with a 4-parameter non-linear regression equation.

[3] = molecular target: T1, LINE1 reverse transcriptase; assay: Transient artificial-intron Cis LINE1 reporter assay; assay type: cell-based; design: expressed in transfected cells; conditions: HEK 293 cells, ratio FLuc/RLuc reports LINE1 activity; read-out: IC50, inhibition of FLuc (FF/RR)
Procedure: Intron-disrupted Firefly luciferase (FLuc) expression cassettes were generated as described by Xie, Y. et al. “Characterization of L1 retrotransposition with high-throughput dual-luciferase assays,” Nucleic Acid Res. (2011) Vol. 39, No. 3, e16. In addition, the plasmid contained an intact Renilla luciferase (RLuc) expression cassette on the vector backbone, in order to normalize transfection efficiency and measure potential cell toxicity.
HEK 293 cells were seeded in 96-well plates at 1,000 cells/well in 55 μL and grown for 24 hours. Cells were transfected with FuGeneHD (Promega) following the manufacturer's protocol. Each well received 0.133 ng plasmid, 0.4 μL FuGeneHD reagent, and 4.5 μL GlutaMAX-I-supplemented Opti-MEM I reduced-serum medium (Invitrogen). Cells were simultaneously treated with test compound serially diluted starting at 100 μM in a 3-fold dilution dose response.
Luminescence was measured using the Dual-Glo Luciferase Assay System (Promega) following the manufacturer's instructions. The ratio between FLuc and RLuc gene expression was used to report LINE1 activity.

[4] = molecular target: T1, LINE1 reverse transcriptase; assay: Homogeneous time-resolved fluorescence (HTRF) LINE1 RT assay; assay type: biochemical; design: recombinant MBP-tagged LINE1 protein (238-1061); MBP; made in house; conditions: recombinant MBP-tagged LINE1 protein (238-1061), read-out: IC50, inhibition of LINE1 reverse transcriptase
Procedure: The LINE1 reverse transcriptase homogeneous time-resolved fluorescence (HTRF) assay was performed with recombinant MBP-tagged LINE1 protein (238-1061) (generated and purified according to procedures in Dai L. et al. BMC Biochemistry 2011; 12:18) in a 384-well format. Test compound was serially diluted in DMSO and further diluted in the assay buffer (50 mM Tris-HCl, 50 mM KCl, 10 mM MgCl2, 10 mM DTT, pH 8.1) to achieve a final DMSO concentration of 1%. The serially diluted compound was mixed with 64 ng/well of LINE1 enzyme, 5 nM of pre-annealed template/biotin-primer pair (synthesized at Generay Biotechnology), 10 nM of Fluorescein-12-dATP fluorescent probe (Perkin Elmer), and 1 μM dGTP/dCTP/dTTP (Thermo Fisher Scientific) in the assay buffer. The template/biotin-primer sequences were as follows:
as §1, with “C. for 60 minutes, the” for “C. for 30 minutes, the”, “detection reagent (20 mM EDTA” for “detection reagent 20 mM EDTA”, “with streptavidin-terbium cryptate, Cisbio Bioassay) in” for “with streptavidin-terbium cryptate (Cisbio Bioassay) in”

For `COC(=O)[C@H](C)NP(=O)(OC[C@@H]1C=C[C@H](n2cc(C)c(=O)[nH]c2=O)O1)Oc1ccc(Br)cc1` (some centres unmarked) [drawing 37], the IC50 [1] was 17 nM.

`Cc1cn([C@H]2C=C[C@@H](CO)O2)c(=O)[nH]c1=O` [stavudine, 1-((2R,5S)-5-(hydroxymethyl)-2,5-dihydrofuran-2-yl)-5-methylpyrimidine-2,4(1H,3H)-dione, reference compound] was tested, and the “reduction in cell viability” value (THP1-Dual KO-TREX1 cells) was ~10%.

`Cc1cn([C@H]2C=C[C@@H](COP(=O)(O)OP(=O)(O)OP(=O)(O)O)O2)c(=O)[nH]c1=O` [drawing 39] was tested, and the IC50 [2] was 42 nM.

`COC(=O)[C@H](C)NP(=O)(OC[C@@H]1C=C[C@H](n2cc(C)c(=O)[nH]c2=O)O1)Oc1ccc(Br)cc1` (some centres unmarked) [drawing 36] gave an IC50 [3] of 5.7 nM.

In the case of `Cc1cn([C@H]2C=C[C@@H](COP(=O)(O)OP(=O)(O)OP(=O)(O)O)O2)c(=O)[nH]c1=O` [drawing 38], the IC50 [4] is reported as 23 nM.
